Legend:
Type in all cases: cell-based
LNCAP FGC cells = assay: Inhibition of LNCAP cell proliferation (WST-8, 96 hours); conditions: LNCAP FGC cells, 96 hours, WST-8
Description: Test Example 8 Inhibitory activity of the compounds disclosed in the present disclosure on LNCAP cell proliferation
LNCAP FGC cells (ATCC, CLR-1740) were cultured in RPMI 1640 (ATCC, 30-2001) complete medium containing 10% fetal bovine serum (Hyclone, SH30406.05). On the first day of the experiment, LNCaP FGC cells were inoculated in 96-well plates at a density of 5,000 cells/well using RPMI 1640 medium containing 10% fetal bovine serum, with 100µL of cell suspension per well, and placed in a cell culture incubator with 5% CO2 at 37°C overnight. […] The compound concentrations were prepared in complete […] medium and serially diluted 5-fold starting from 10 µM, resulting in a total of nine concentration points. Wells receiving 100 µL of RPMI 1640 medium containing 10% FBS only were used as controls. The plates were incubated at 37°C in a 5% CO2 incubator for 96 hours.

VCaP cells = assay: Inhibition of proliferation of VCaP cells (WST-8, 168 hours); conditions: VCaP cells, 168 hours, WST-8
Description: Test Example 7 Inhibitory activity of the compounds disclosed in the present disclosure on the proliferation of VCaP cells
VCaP cells (ATCC, CRL-2876) were cultured in DMEM (Gibco, 11995-065) complete medium containing 10% fetal bovine serum (Hyclone, SH30406.05). On the first day of the experiment, VCaP cells were inoculated in 96-well plates at a density of 15,000 cells/well using DMEM medium containing 10% fetal bovine serum, with 100µL of cell suspension per well, and placed in a cell culture incubator with 5% CO2 at 37°C overnight. […] The compound concentrations were prepared in complete DMEM medium and serially diluted 5-fold starting from 10 µM, resulting in a total of nine concentration points. Wells receiving 100 µL of DMEM medium containing 10% FBS only were used as blank controls. The plates were incubated at 37°C in a 5% CO2 incubator for 168 hours.

AR protein = target: T1, AR protein (Homo sapiens, UniProt P10275, T878A); assay: Degradation of AR protein in LNCAP cells (Western blot, 8 h); conditions: LNCaP FGC cells
T1 construct: host or cells: LNCaP FGC
T1 sequence (P10275 1-920 T878A): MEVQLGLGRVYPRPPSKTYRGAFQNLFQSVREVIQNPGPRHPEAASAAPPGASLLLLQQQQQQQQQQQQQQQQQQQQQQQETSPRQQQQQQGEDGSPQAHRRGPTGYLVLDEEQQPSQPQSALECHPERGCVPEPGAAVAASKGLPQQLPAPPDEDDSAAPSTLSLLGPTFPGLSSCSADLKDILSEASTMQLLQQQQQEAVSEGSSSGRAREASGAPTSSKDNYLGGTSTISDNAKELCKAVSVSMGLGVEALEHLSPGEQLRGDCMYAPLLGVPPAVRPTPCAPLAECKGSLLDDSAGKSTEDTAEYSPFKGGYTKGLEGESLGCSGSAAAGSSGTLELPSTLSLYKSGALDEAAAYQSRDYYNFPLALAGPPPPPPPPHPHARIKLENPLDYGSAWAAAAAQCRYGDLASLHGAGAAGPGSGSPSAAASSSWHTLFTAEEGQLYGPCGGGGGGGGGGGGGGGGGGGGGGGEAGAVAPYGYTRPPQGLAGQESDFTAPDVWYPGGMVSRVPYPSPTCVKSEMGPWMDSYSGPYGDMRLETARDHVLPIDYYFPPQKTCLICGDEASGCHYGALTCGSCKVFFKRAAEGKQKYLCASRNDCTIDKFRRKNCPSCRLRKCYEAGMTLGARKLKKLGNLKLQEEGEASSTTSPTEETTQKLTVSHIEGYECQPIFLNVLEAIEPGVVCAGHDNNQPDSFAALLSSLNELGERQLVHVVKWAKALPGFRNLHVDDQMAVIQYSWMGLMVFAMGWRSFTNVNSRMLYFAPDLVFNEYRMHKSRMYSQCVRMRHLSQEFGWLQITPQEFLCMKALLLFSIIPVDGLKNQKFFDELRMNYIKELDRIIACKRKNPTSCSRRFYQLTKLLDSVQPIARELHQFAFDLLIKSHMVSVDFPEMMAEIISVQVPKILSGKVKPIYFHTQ
Description: After 8 h, the culture medium was discarded, and the cells were washed with PBS. After the cells were washed with PBS, RIPA lysis buffer containing 1% Protease Inhibitor Cocktail was added, and the total protein extract was obtained after lysis and centrifugation, and the protein concentration in the extract was detected by BCA method. Protein electrophoresis was carried out by SDS-PAGE, after which the proteins were transferred to PVDF (Millipore Sigma Catalog No. PSRP010R5) membrane by 100V constant voltage electrotransfer for 60 min, and the PVDF membrane was placed in 1×TBST solution with 5% milk and blocked at room temperature for 1h. […] The primary antibody solution was discarded, and the PVDF membrane was washed three times with 1× TBST for 5 min each. […] The secondary antibody solution was discarded, and the PVDF membrane was washed three times with 1× TBST for 5 min each. Western membrane imaging was performed using a dual-color infrared laser imaging system (Licor catalog number Odyssey CLX). Bands were analyzed in grayscale using the software Image Studio. For each sample, GAPDH protein bands were detected as internal reference. The degradation rates of the AR protein for the compounds and positive control sample were calculated based on the grayscale of the protein bands.

## COc1cc(O[C@H]2CC[C@H](NC(=O)c3ccc(N4CCC(C)(CN5CCC6(CC5)COc5c6ccc6c5C(=O)N(C5CCC(=O)NC5=O)C6)CC4)nn3)CC2)ccc1C#N (relative stereo) [2-261]
LNCAP FGC cells
  IC50: 49100 nM
VCaP cells
  IC50: 12 nM
AR protein
  Degradation rates of the AR protein in LNCAP cells, 10 nM (%): 53%
  Degradation rates of the AR protein in LNCAP cells, 100 nM (%): 70%

## CC1(CN2CCC3(CC2)COc2c3ccc3c2C(=O)N(C2CCC(=O)NC2=O)C3)CCN(c2ccc(C(=O)N[C@H]3CC[C@H](Oc4ccc(C#N)c(Cl)c4)CC3)nn2)CC1 (relative stereo) [2-262]
LNCAP FGC cells
  IC50: 21300 nM
VCaP cells
  IC50: 11 nM
AR protein
  Degradation rates of the AR protein in LNCAP cells, 10 nM (%): 47%
  Degradation rates of the AR protein in LNCAP cells, 100 nM (%): 68%

## COC1(CN2CCC3(CC2)COc2c3ccc3c2C(=O)N(C2CCC(=O)NC2=O)C3)CCN(c2ccc(C(=O)N[C@H]3CC[C@H](Oc4ccc(C#N)c(Cl)c4)CC3)nn2)CC1 (relative stereo) [2-263]
LNCAP FGC cells
  IC50: 6300 nM
VCaP cells
  IC50: 11 nM
AR protein
  Degradation rates of the AR protein in LNCAP cells, 10 nM (%): 38%
  Degradation rates of the AR protein in LNCAP cells, 100 nM (%): 69%

## COc1cc(O[C@H]2C(C)(C)[C@H](NC(=O)c3ccc(N4CCC(C)(CN5CCC6(CC5)COc5c6ccc6c5C(=O)N(C5CCC(=O)NC5=O)C6)CC4)cc3)C2(C)C)ccc1C#N (relative stereo) [2-292]
LNCAP FGC cells
  IC50: 68500 nM
VCaP cells
  IC50: 3 nM
AR protein
  Degradation rates of the AR protein in LNCAP cells, 10 nM (%): 43%
  Degradation rates of the AR protein in LNCAP cells, 100 nM (%): 78%

## COc1cc(O[C@H]2C(C)(C)[C@H](NC(=O)c3ccc(N4CCC(CN5CCC6(CC5)COc5c6ccc6c5C(=O)N(C5CCC(=O)NC5=O)C6)(OC)CC4)cc3)C2(C)C)ccc1C#N (relative stereo) [2-293]
LNCAP FGC cells
  IC50: 88100 nM
VCaP cells
  IC50: 5 nM
AR protein
  Degradation rates of the AR protein in LNCAP cells, 10 nM (%): 62%
  Degradation rates of the AR protein in LNCAP cells, 100 nM (%): 82%

## N#Cc1ccc(O[C@H]2CC[C@H](NC(=O)c3ccc(N4CCC(F)(CN5CCC6(CC5)COc5c6ccc6c5C(=O)N(C5CCC(=O)NC5=O)C6)CC4)nn3)CC2)cc1Cl (relative stereo) [2-315]
LNCAP FGC cells
  IC50: 2450 nM
VCaP cells
  IC50: 7 nM
AR protein
  Degradation rates of the AR protein in LNCAP cells, 10 nM (%): 33%
  Degradation rates of the AR protein in LNCAP cells, 100 nM (%): 44%

## COc1cc(O[C@H]2CC[C@H](NC(=O)c3ccc(N4CCC(F)(CN5CCC6(CC5)COc5c6ccc6c5C(=O)N(C5CCC(=O)NC5=O)C6)CC4)nn3)CC2)ccc1C#N (relative stereo) [2-316]
LNCAP FGC cells
  IC50: 68200 nM
VCaP cells
  IC50: 2 nM
AR protein
  Degradation rates of the AR protein in LNCAP cells, 10 nM (%): 49%
  Degradation rates of the AR protein in LNCAP cells, 100 nM (%): 61%

## COc1cc(O[C@H]2C(C)(C)[C@H](NC(=O)c3ccc(N4CCC(CN5CCC6(CC5)COc5c6ccc6c5C(=O)N(C5CCC(=O)NC5=O)C6)CC4)cc3)C2(C)C)ccc1C#N (relative stereo) [2-318]
LNCAP FGC cells
  IC50: 9850 nM
VCaP cells
  IC50: 1 nM
AR protein
  Degradation rates of the AR protein in LNCAP cells, 10 nM (%): 58%
  Degradation rates of the AR protein in LNCAP cells, 100 nM (%): 73%

## C[C@H]1CC2(CCN(c3ccc(N4CCC(CN5CCC6(CC5)COc5c6ccc6c5C(=O)N(C5CCC(=O)NC5=O)C6)CC4)cc3)CC2)CN1c1ccc(C#N)c(Cl)c1 (stereo partly drawn) [2-103]
LNCAP FGC cells
  IC50: 850 nM
VCaP cells
  IC50: 36 nM
AR protein
  Degradation rates of the AR protein in LNCAP cells, 10 nM (%): 55%
  Degradation rates of the AR protein in LNCAP cells, 100 nM (%): 79%
